In patent US11207312B2, “Metallo-beta-lactamase inhibitors and methods of use thereof” (priority 2017, dated 2021):

Legend:
VIM-2 = VIM-2 (Escherichia coli, UniProt Q5U7L7); assay: biochemical; conditions: CCF2-FA fluorescence assay; read-out: VIM2 IC50
[1] = test system: Escherichia coli expressing NDM-1 (CLB30016); type: cell-based; conditions: with imipenem 1 μg/ml; 95% inhibition of bacterial growth
Procedure: (§1) The bacterial strains tested included the clinical strains Escherichia coil expressing NDM-1 (CLB30005, CLB30016), Serratia marcescens expressing IMP-1 (CL5741), and Klebsiella pneumoniae expressing VIM-1 (H-LMA599644). Inhibitor activity was measured in the presence and absence of imipenem in a 384-well microplate.
(§2) The clinical strains CLB30016, CL5741 and IHMA599644 were grown on trypticase soy agar containing 5% sheep's blood. The bacteria on agar plates were incubated at 35° C. with humidity overnight. The following day, individual colonies from each clinical strain were picked and resuspended in 5 ml saline to attain an OD600 of […], for CLB30016, C15741 and IHMA599644, respectively. These were further diluted 1:100 into 1.1× CAMHB and used to inoculate the test wells as described below.
(§3) Imipenem in 10 mM 3-(N-morpholino)propanesulfonic acid (MOPS, pH 7) was stored in single use aliquots at −80° C. […] On the day of the assay, 4 μl of antibiotic was added to 45 μl of bacteria followed by 1 μl of test compound and mixed by pipetting and with an orbital shaker. The concentration of antibiotic used in the assay was 1 μg/ml. Microplates were covered and incubated at 35° C. for 22 hours to 24 hours. At the end of the incubation, absorbance was determined using a spectrophotometer. The synergistic concentration of MBLI was determined by identifying the lowest concentration of test compound in the presence of a given concentration of antibiotic that was required to inhibit 95% of the growth of the bacteria. The results for Examples 1-209 are reported in Table 1, expressed as the concentration of compound that potentiated the action of antibiotic (imipenem) affecting 95% inhibition of bacterial growth (MITC95).

[2] = test system: Klebsiella pneumoniae expressing VIM-1 (IHMA599644); type: cell-based; conditions: with imipenem 1 μg/ml; 95% inhibition of bacterial growth
Procedure: as §1, §2, §3

[3] = test system: Serratia marcescens expressing IMP-1 (CL5741); type: cell-based; conditions: with imipenem 1 μg/ml; 95% inhibition of bacterial growth
Procedure: as §1, §2, §3

IMP-1 = IMP-1 (Serratia marcescens, UniProt P52699); assay: biochemical; conditions: CCF2-FA fluorescence assay, 2 hours at 25° C.; read-out: IMP1 IC50
Procedure: (§4) The Class B enzyme activities were measured in the presence of the test inhibitor in a fluorescence assay against a commercially available substrate consisting of a cephalosporin core linking 7-hydroxycoumarin to fluorescein (CCF2-FA). The enzyme (NDM-1, IMP-1 or VIM-1) and the substrate were diluted in 100 mM KH2PO4 buffer (pH 7) containing 0.005% Tween-20 and 10 μM ZnSO4. In the assay, the final concentration of enzyme was 1 pM, 2 pM and 30 pM for NDM-1, IMP-1 and VIM-1, respectively, and the final concentration of CCF2-FA was 1.25 μM. The test inhibitor was dissolved in dimethylsulfoxide and diluted 1:50 in the assay, resulting in a final concentration range of 20 μM to 0.00063 μM. In a 384-well microplate, the test inhibitor was incubated with the metallo-β-lactamase enzyme and the substrate for 2 hours at 25° C. Fluorescence at 460 nm following excitation at 405 nm was measured. The IC50 value was determined from semi-logarithmic plots of enzyme inhibition versus inhibitor concentration, with a curve generated using a 4-parameter fit.

VIM-1 = VIM-1 (Pseudomonas aeruginosa (strain ATCC 15692 / DSM 22644 / CIP 104116 / JCM 14847 / LMG 12228 / 1C / PRS 101 / PAO1), UniProt A0A0F7KYQ8); assay: biochemical; conditions: CCF2-FA fluorescence assay, 2 hours at 25° C.; read-out: VIM1 IC50
Procedure: as §4

NDM-1 = NDM-1 (Klebsiella pneumoniae, UniProt C7C422); assay: biochemical; type: biochemical; conditions: CCF2-FA fluorescence assay, 2 hours at 25° C.
Procedure: as §4

[4] = test system: P. aeruginosa MB9798 (efflux+, IMP-1 plasmid); conditions: for MB9798 MITC95 P. aeruginosa uM Efflux WT: efflux + (MB9798) strain, imipenem at 2 μg/mL, in the presence of a class A, C, D serine β-lactamase inhibitor closely related to relebactam; for Efflux ratio: fold difference between efflux+ (MB9798) and efflux− (MB9799) strains
From the text: (§5) The strain background is Pseudomonas aeruginosa PAO1. A wild-type (M135919) and an isogenic strain in which multiple efflux pumps have been disrupted genetically were used. The MBL IMP-1, obtained from a clinical isolate was introduced into the strain pair by the following process:
(§6) The plasmid DNA was transformed into parental MB5919 (oprD+, efflux+, inducible AmpC) and MB5890 (oprD+, efflux−, inducible AmpC) isogenic strains by electroporation.
(§7) The strain set was then used as a pair to determine the effect of metallo-β-lactamase inhibitors of Formula I on the MIC of imipenem and/or ceftazidime. A fixed concentration of antibiotic is included in standard microbroth MIC tests, usually at the CLSI breakpoint concentration, A fixed amount of a class A/C beta-lactamase inhibitor is also included to inhibit the resident Pseudomonas AmpC enzyme. A serial titration of the metallo-β-lactamase inhibitor was included and the concentration of metallo-β-lactamase inhibitor which restores susceptibility of the strain to the included antibiotic was recorded. That concentration of metallo-β-lactamase inhibitor was then compared between the two strains to determine the fold difference between the efflux+(MB9798) and efflux−(MI39799) strains, which indicates the extent to which the MBLi is subject to efflux.

[5] = test system: P. aeruginosa MB9799 (efflux-, IMP-1 plasmid); type: cell-based, Pseudomonas aeruginosa; conditions: efflux − (MB9799) strain; imipenem at 2 μg/mL; in the presence of a class A, C, D serine β-lactamase inhibitor closely related to relebactam
From the text: as §5, §6, §7

NDM-1, sequence (C7C422 whole entry, looked up, species assumed): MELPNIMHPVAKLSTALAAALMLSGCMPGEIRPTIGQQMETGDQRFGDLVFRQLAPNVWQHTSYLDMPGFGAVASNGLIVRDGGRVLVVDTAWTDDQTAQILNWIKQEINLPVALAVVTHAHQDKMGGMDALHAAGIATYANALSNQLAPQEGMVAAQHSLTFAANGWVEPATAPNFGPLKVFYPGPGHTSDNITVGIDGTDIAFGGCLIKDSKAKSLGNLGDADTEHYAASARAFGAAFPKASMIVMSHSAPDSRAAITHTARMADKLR
IMP-1, sequence (P52699 whole entry, looked up, species assumed): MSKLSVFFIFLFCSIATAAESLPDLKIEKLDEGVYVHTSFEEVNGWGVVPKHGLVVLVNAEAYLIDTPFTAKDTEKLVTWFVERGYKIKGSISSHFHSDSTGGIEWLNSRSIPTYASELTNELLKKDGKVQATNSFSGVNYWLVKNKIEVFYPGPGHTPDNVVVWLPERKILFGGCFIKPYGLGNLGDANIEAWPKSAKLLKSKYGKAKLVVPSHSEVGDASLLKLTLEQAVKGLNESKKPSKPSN

Row | Compound | IC50 (VIM-2) | CLB30016 E. coli MITC95 NDM [1] | IHMA599644 K. pneumoniae MITC95 VIM [2] | CL5741 S. marcescens MITC95 IMP [3] | IC50 (IMP-1) | IC50 (VIM-1) | IC50 (NDM-1) | MB9798 MITC95 P. aeruginosa uM Efflux WT [4] | Efflux ratio [4] | MB9799 MITC95 P. aeruginosa uM Efflux Mutant [5]
1 | NC[C@@H](O)CNS(=O)(=O)c1ccc(N2CC[C@H](CN)[C@@H](F)C2)c(-c2nn[nH]n2)c1S(N)(=O)=O (stereo in doubt) [Example 13, N^1—((R)-3-amino-2-hydroxypropyl)-4-(trans-4-(aminomethyl)-3-fluoropiperidin-1-yl)-3-(2H-tetrazol-5-yl)benzene-1,2-disulfonamide] | 4.12 nM | 1.56 µM | 0.78 µM | 0.78 µM | 3.7 nM | 0.14 nM | 3.01 nM | 0.78 µM | 2.00 | 0.39 µM
2 | NC[C@@H](O)CNS(=O)(=O)c1ccc(N2CC[C@@H](N)[C@H](F)C2)c(-c2nn[nH]n2)c1S(N)(=O)=O [Example 2] | 4.04 nM | 0.20 µM | 0.78 µM | 0.78 µM | 3.37 nM | 0.17 nM | 6.51 nM | 0.78 µM | 1.00 | 0.78 µM
3 | NC[C@@H](O)CNS(=O)(=O)c1ccc(N2CCC(F)(CN)CC2)c(-c2nn[nH]n2)c1S(N)(=O)=O [Example 3] | 3.68 nM | 0.78 µM | 0.78 µM | 1.56 µM | 3.95 nM | 0.61 nM | 2.43 nM | 0.78 µM | 2.00 | 0.39 µM
4 | CC1CC(CN)CCN1c1ccc(S(=O)(=O)NC[C@H](O)CN)c(S(N)(=O)=O)c1-c1nn[nH]n1 (stereo partly drawn) [Example 4, N1-((R)-3-amino-2-hydroxypropyl)-4-(4-(aminomethyl)-2-methylpiperidin-1-yl)-3-(2H-tetrazol-5-yl)benzene-1,2-disulfonamide] | 2.4 nM | 3.13 µM | 3.13 µM | 1.56 µM | 9.4 nM | 0.18 nM | 2.17 nM | 1.56 µM | 2.00 | 0.78 µM
5 | NC[C@@H](O)CNS(=O)(=O)c1ccc(N2CC[C@H](CN)[C@H](O)C2)c(-c2nn[nH]n2)c1S(N)(=O)=O [Example 9, N^1—((R)-3-amino-2-hydroxypropyl)-4-(cis-4-(aminomethyl)-3-hydroxypiperidin-1-yl)-3-(2H-tetrazol-5-yl)benzene-1,2-disulfonamide] | 6.41 nM | 0.39 µM | 1.56 µM | 0.78 µM | 15.5 nM | 0.26 nM | 3.46 nM | 1.56 µM | 2.00 | 0.78 µM
